Read-outs that look alike come from different tables or passages of the source.

Experimental findings from US20250002507A1, “7,8-DIHYDRO-5H-1,6-NAPHTHYRIDINE DERIVATIVES AS POSITIVE ALLOSTERIC MODULATORS OF THE MUSCARINIC ACETYLCHOLINE RECEPTOR M4 FOR TREATING NEUROLOGICAL AND PSYCHIATRIC DISORDERS” (Vanderbilt University, priority 2021, published 2025) are described below.

This assay addresses T1, Human M4 (Homo sapiens, UniProt P08173).
T1 construct: expressed in transfected cells
T1 sequence (P08173 1-479): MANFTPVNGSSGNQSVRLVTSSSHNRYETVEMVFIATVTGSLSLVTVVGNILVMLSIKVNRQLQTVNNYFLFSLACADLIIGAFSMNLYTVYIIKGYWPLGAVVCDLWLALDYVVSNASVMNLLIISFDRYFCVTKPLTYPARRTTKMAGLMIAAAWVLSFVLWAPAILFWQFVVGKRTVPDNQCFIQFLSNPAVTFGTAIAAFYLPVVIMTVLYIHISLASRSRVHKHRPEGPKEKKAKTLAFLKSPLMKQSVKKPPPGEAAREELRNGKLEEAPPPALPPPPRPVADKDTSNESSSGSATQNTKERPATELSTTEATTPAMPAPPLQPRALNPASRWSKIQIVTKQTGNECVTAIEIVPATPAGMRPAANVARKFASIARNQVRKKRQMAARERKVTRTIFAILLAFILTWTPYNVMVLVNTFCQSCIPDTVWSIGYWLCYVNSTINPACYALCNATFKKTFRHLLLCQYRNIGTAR
The assay can be described thus: mAChR M4 cell-based functional assay (calcium flux, potentiation of EC20 acetylcholine response), hM4-Gqi5 CHO-K1 cells. As to conditions: for Emax at 30 µM: % ACh maximum at 30 μM; for EC50: calcium flux, read-out: Human M4 EC50. The procedure, abridged: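 Positive allosteric modulation was scored as a concentration-dependent rise in the response to an EC20 dose of acetylcholine, added 144 s after the compound. Human M4-Gqi5 CHO-K1 cells carried Fluo-4 dye, and compounds ran as 11-point, 3-fold dilution series. EC50 and Emax came from four-parameter logistic fits of the FDSS fluorescence-ratio traces.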
In general terms: Calcium flux is commonly read through the fluorescence of an indicator in the cells.

Where [1] appears, read: CHO-K1, Table 4, Human M4, read-out: Emax (% ACh maximum at 30 μM).
[2] abbreviates: Table 4, potentiation of EC20 acetylcholine response, CHO-K1 cells.
[3] abbreviates: CHO-K1, human M4, read-out: Emax.
Where [4] appears, read: hM4-Gqi5 CHO-K1 cells, PAM of EC20 acetylcholine.
The mark [5] stands for this setting: Table 3, potentiation of EC20 acetylcholine response, CHO-K1 cells.
[6] abbreviates: CHO-K1, Table 3, Human M4, read-out: Emax (% ACh maximum at 30 μM).

Turning to `COC1CCN(c2cnc3c(c2)CN(c2nn4c(C(F)(F)F)nnc4c(C)c2C)CC3)CC1` [Compound 317, 6-(7,8-dimethyl-3-(trifluoromethyl)-[1,2,4]triazolo[4,3-b]pyridazin-6-yl)-3-(4-methoxypiperidin-1-yl)-5,6,7,8-tetrahydro-1,6-naphthyridine], the Emax at 30 µM under setting [1] was 84%. Also, the EC50 under setting [2] amounted to 1400 nM.
With `Cc1c(N2CCc3ncc(Nc4ccccc4F)cc3C2)nn2c(C)nnc2c1C` [Compound 83, N-(2-fluorophenyl)-6-(3,7,8-trimethyl-[1,2,4]triazolo[4,3-b]pyridazin-6-yl)-7,8-dihydro-5H-1,6-naphthyridin-3-amine], under setting [3], the Emax at 30 µM turned out to be 99%. In addition, under setting [4], the EC50 was determined as 361 nM.
Turning to `[2H]C1([2H])Cc2ncc(Nc3ccncc3F)cc2C([2H])([2H])N1c1nn2cnnc2c(C)c1C` [Compound 358, 6-(7,8-dimethyl-[1,2,4]triazolo[4,3-b]pyridazin-6-yl)-N-(3-fluoropyridin-4-yl)-5,6,7,8-tetrahydro-1,6-naphthyridin-5,5,7,7-d4-3-amine], under setting [1], the Emax at 30 µM came out at 96%. In addition, the EC50 under setting [2] came out at 3 nM.
Take `Cc1ncc(-c2cnc3c(c2)CN(c2nn4cnnc4c(C)c2C)CC3)cn1` [Compound 37, 6-(7,8-dimethyl-[1,2,4]triazolo[4,3-b]pyridazin-6-yl)-3-(2-methylpyrimidin-5-yl)-7,8-dihydro-5H-1,6-naphthyridine]: under setting [3], the Emax at 30 µM is 59%. Also, the EC50 under setting [4] amounted to 2280 nM.
Turning to `Cc1c(N2CCc3ncc(N)cc3C2)nn2cnnc2c1C` [Compound 152, 6-(7,8-dimethyl-[1,2,4]triazolo[4,3-b]pyridazin-6-yl)-5,6,7,8-tetrahydro-1,6-naphthyridin-3-amine], the Emax (CHO-K1, read-out: Emax (% ACh maximum at 30 μM)) was determined as 102%. The EC50 under setting [5] was 1280 nM.
In the case of `Cc1cc2nncn2nc1N1CCc2ncc(-c3cnn(CC(C)C)c3)cc2C1` [Compound 147, 3-(1-isobutylpyrazol-4-yl)-6-(7-methyl-[1,2,4]triazolo[4,3-b]pyridazin-6-yl)-7,8-dihydro-5H-1,6-naphthyridine], under setting [3], the Emax at 30 µM came out at 99%. Also, the EC50 under setting [4] stood at 477 nM.
The corresponding values for `Cc1cc2nccn2nc1N1CCc2ncc(-c3c(C)cnn3C)cc2C1` [Compound 136, 3-(2,4-dimethylpyrazol-3-yl)-6-(7-methylimidazo[1,2-b]pyridazin-6-yl)-7,8-dihydro-5H-1,6-naphthyridine] are 66% and 1200 nM.
Turning to `[2H]C1([2H])Cc2ncc(Nc3cccnc3C)cc2C([2H])([2H])N1c1nn2cnnc2cc1C` [Compound 354, 6-(7-methyl-[1,2,4]triazolo[4,3-b]pyridazin-6-yl)-N-(2-methylpyridin-3-yl)-5,6,7,8-tetrahydro-1,6-naphthyridin-5,5,7,7-d4-3-amine], the Emax at 30 µM under setting [1] was 87%. Moreover, the EC50 under setting [2] turned out to be 355 nM.
Take `Cc1cc2nccn2nc1N1CCc2ncc(-c3cnn(C4CC4)c3)cc2C1` [Compound 145, 3-(1-cyclopropylpyrazol-4-yl)-6-(7-methylimidazo[1,2-b]pyridazin-6-yl)-7,8-dihydro-5H-1,6-naphthyridine]: the Emax at 30 µM under setting [3] turned out to be 74%. Under setting [4], the EC50 was found to be 304 nM.
Consider `Cc1c(N2CCc3ncc(C(=O)NCc4cncs4)cc3C2)nn2c(C(F)(F)F)nnc2c1C` [Compound 228, 6-(7,8-dimethyl-3-(trifluoromethyl)-[1,2,4]triazolo[4,3-b]pyridazin-6-yl)-N-(thiazol-5-ylmethyl)-5,6,7,8-tetrahydro-1,6-naphthyridine-3-carboxamide], for which, under setting [6], the Emax at 30 µM was 85%. Also, the EC50 under setting [5] came to 1720 nM.
The corresponding values for `Cc1c(N2CCc3ncc(OCC4CCOC4)cc3C2)nn2cnnc2c1C` (stereo not drawn) [Compound 264, 6-(7,8-dimethyl-[1,2,4]triazolo[4,3-b]pyridazin-6-yl)-3-((tetrahydrofuran-3-yl)methoxy)-5,6,7,8-tetrahydro-1,6-naphthyridine] are 82% and 1220 nM.
The corresponding values for `Cc1c(N2CCc3ncc(Oc4ccccc4F)cc3C2)nn2c(C(F)(F)F)nnc2c1C` [Compound 277, 6-(7,8-dimethyl-3-(trifluoromethyl)-[1,2,4]triazolo[4,3-b]pyridazin-6-yl)-3-(2-fluorophenoxy)-5,6,7,8-tetrahydro-1,6-naphthyridine] are 85% and 392 nM.
On to `[2H]C1([2H])Cc2ncc(Nc3ccncc3F)cc2C([2H])([2H])N1c1nn2cnnc2cc1C` [Compound 355, N-(3-Fluoropyridin-4-yl)-6-(7-methyl-1,2,4[triazolo 4,3-b]pyridazin-6-yl)-5,6,7,8-tetrahydro-1,6-naphthyridin-5,5,7,7-d4-3-amine], for which the Emax at 30 µM under setting [1] came to 94%. Also, the EC50 under setting [2] stood at 14 nM.
Take `Cc1c(N2CCc3ncc(C(C)(C)O)cc3C2)nn2cnnc2c1C` [Compound 62, 2-[6-(7,8-Dimethyl-[1,2,4]triazolo[4,3-b]pyridazin-6-yl)-7,8-dihydro-5H-1,6-naphthyridin-3-yl]propan-2-ol]: the Emax at 30 µM under setting [3] worked out at 108%. Further, the EC50 under setting [4] amounted to 92.9 nM.
Taken in the same sequence, the figures for `Cc1ccc(Nc2cnc3c(c2)CN(c2nn4cnnc4c(C)c2C)CC3)c(F)n1` [Compound 81, 6-(7,8-dimethyl-[1,2,4]triazolo[4,3-b]pyridazin-6-yl)-N-(2-fluoro-6-methyl-3-pyridyl)-7,8-dihydro-5H-1,6-naphthyridin-3-amine] were 94% and 169 nM.
Consider `CCc1ccncc1-c1cnc2c(c1)CN(c1nn3cnnc3c(C)c1C)CC2` [Compound 175, 6-(7,8-dimethyl-[1,2,4]triazolo[4,3-b]pyridazin-6-yl)-3-(4-ethylpyridin-3-yl)-5,6,7,8-tetrahydro-1,6-naphthyridine], for which the Emax at 30 µM under setting [6] came to 81%. Further, the EC50 under setting [5] worked out at 155 nM.
Taken in the same sequence, the figures for `COc1ncc(-c2cnc3c(c2)CN(c2nn4cnnc4c(C)c2C)CC3)cc1Cl` [Compound 173, 3-(5-chloro-6-methoxypyridin-3-yl)-6-(7,8-dimethyl-[1,2,4]triazolo[4,3-b]pyridazin-6-yl)-5,6,7,8-tetrahydro-1,6-naphthyridine] were 80% and 937 nM.
Taken in the same sequence, the figures for `Cc1c(N2CCc3ncc(C4CC4)cc3C2)nn2cnnc2c1C` [Compound 200, 3-cyclopropyl-6-(7,8-dimethyl-[1,2,4]triazolo[4,3-b]pyridazin-6-yl)-5,6,7,8-tetrahydro-1,6-naphthyridine] were 93% and 53 nM.
The corresponding values for `Cc1c(N2CCc3ncc(Oc4cccc(F)c4)cc3C2)nn2c(C(F)(F)F)nnc2c1C` [Compound 278, 6-(7,8-dimethyl-3-(trifluoromethyl)-[1,2,4]triazolo[4,3-b]pyridazin-6-yl)-3-(3-fluorophenoxy)-5,6,7,8-tetrahydro-1,6-naphthyridine] are 84% and 832 nM.
In the case of `Cc1c(N2CCc3ncc(-c4ccnn4C(C)C)cc3C2)nn2cnnc2c1C` [Compound 13, 6-(7,8-Dimethyl-[1,2,4]triazolo[4,3-b]pyridazin-6-yl)-3-(2-isopropylpyrazol-3-yl)-7,8-dihydro-5H-1,6-naphthyridine], the Emax (CHO-K1) was found to be 62%. For the same molecule, the EC50 under setting [4] is 285 nM.
`Cc1c(N2CCc3ncc(Nc4ncc(F)cc4F)cc3C2)nn2cnnc2c1C` [Compound 79, N-(3,5-difluoro-2-pyridyl)-6-(7,8-dimethyl-[1,2,4]triazolo[4,3-b]pyridazin-6-yl)-7,8-dihydro-5H-1,6-naphthyridin-3-amine]: the Emax at 30 µM under setting [3] worked out at 62%. For the same molecule, the concentration for a half-maximal effect (EC50) under setting [4] was 180 nM.
With `Cc1cc2nnc(C(F)(F)F)n2nc1N1CCc2ncc(N3CCOc4ncccc43)cc2C1` [Compound 324, 1-(6-(7-methyl-3-(trifluoromethyl)-[1,2,4]triazolo[4,3-b]pyridazin-6-yl)-5,6,7,8-tetrahydro-1,6-naphthyridin-3-yl)-2,3-dihydro-1H-pyrido[2,3-b][1,4]oxazine], under setting [1], the Emax at 30 µM was 111%. Also, the EC50 under setting [2] turned out to be 153 nM.
For `Cc1c(N2CCc3ncc(-c4cncs4)cc3C2)nn2c(C)nnc2c1C` [Compound 90, 5-[6-(3,7,8-trimethyl-[1,2,4]triazolo[4,3-b]pyridazin-6-yl)-7,8-dihydro-5H-1,6-naphthyridin-3-yl]thiazole], the maximal effect (Emax) at 30 µM under setting [3] was 101%. Further, the EC50 under setting [4] turned out to be 269 nM.
Regarding `Cc1c(N2CCc3ncc(-c4cncc(C#N)c4)cc3C2)nn2cnnc2c1C` [Compound 40, 5-[6-(7,8-dimethyl-[1,2,4]triazolo[4,3-b]pyridazin-6-yl)-7,8-dihydro-5H-1,6-naphthyridin-3-yl]pyridine-3-carbonitrile], the Emax at 30 µM under setting [3] was 69%. In addition, the EC50 under setting [4] was 716 nM.

A word on the Emax: it is the maximal effect, on the per cent scale that the assay sets. One may read the EC50 as the concentration giving half of the maximal effect.
